# Patent US20250382287A1, “PHARMACEUTICALLY ACCEPTABLE SALT AND CRYSTAL FORM OF NITROGEN-CONTAINING BRIDGE HETEROCYCLIC DERIVATIVE, AND METHOD FOR PREPARING SAME” (JIANGSU HENGRUI PHARMACEUTICALS CO., LTD., priority 2022, published 2025)
# Tests used:
# [1] = Influencing factor stability (open flasks, light, high temperature, high humidity, 30 days)
# [2] = Long-term/accelerated stability (sealed, 25° C./60% RH and 40° C./75% RH)
# [3] = DVS (dynamic vapor sorption) hygroscopicity testing; assay type: physicochemical; conditions: for hygroscopic weight gain under normal storage conditions / hygroscopic weight gain under accelerated experimental conditions / hygroscopic weight gain under extreme conditions: DVS; for hygroscopic weight gain under normal storage conditions: 25° C. and 60% RH; for hygroscopic weight gain under accelerated experimental conditions: 70% RH; for hygroscopic weight gain under extreme conditions: 90% RH; for crystal form re-identification after DVS testing: XRPD after DVS
# Method: DVS refers to dynamic vapor sorption: Surface Measurement Systems instrinsic was adopted; the humidity started at 50%, the humidity range investigated was 0%-95%, and the humidity was increased in increments of 10%; the criterion was that each gradient mass change dM/dT is less than 0.002%, TMAX 360 min, two cycles.
# [4] = Light exposure (4500 Lux), 5 days, open flask
# [5] = Light exposure (4500 Lux), 10 days, open flask
# [6] = Light exposure (4500 Lux), 30 days, open flask
# [7] = light exposure (4500 Lux), 40° C. and 60° C., high humidity RH 75% and 92.5%, 30 days
# [8] = 25° C., 60% RH, sealed, 1 month
# [9] = 25° C., 60% RH, sealed, 2 months
# [10] = 25° C., 60% RH, sealed, 3 months
# [11] = 25° C., 60% RH, sealed, 6 months
# [12] = 25° C./60% RH and 40° C./75% RH, 6 months
# [13] = 40° C., 75% RH, sealed, 1 month
# [14] = 40° C., 75% RH, sealed, 2 months
# [15] = 40° C., 75% RH, sealed, 3 months
# [16] = 40° C., 75% RH, sealed, 6 months
# [17] = Light exposure (4500 Lux), 12 days, open flask
smiles,measurement,setting,value
"CCO[C@H]1C[C@H]2CC[C@@](c3ccc(C(=O)O)cc3)(C1)N2Cc1c(OC)cc(C)c2[nH]ccc12.O=C(O)/C=C/C(=O)O [crystal form I of the fumarate, 4-((1S,3S,5R)-3-ethoxy-8-((5-methoxy-7-methyl-1H-indol-4-yl)methyl)-8-azabicyclo[3.2.1]octan-1-yl)benzoic acid-fumarate]",Color and state,"[1]; 40° C., 5 days, open flask",White solid
same,Purity %,"[1]; 40° C., 5 days, open flask",99.7%
same,Salt form,"[1]; 40° C., 5 days, open flask",No change
same,Color and state,"[1]; 40° C., 10 days, open flask",White solid
same,Purity %,"[1]; 40° C., 10 days, open flask",99.6%
same,Salt form,"[1]; 40° C., 10 days, open flask",No change
same,Color and state,"[1]; 40° C., 30 days, open flask",White solid
same,Purity %,"[1]; 40° C., 30 days, open flask",99.3%
same,Salt form,"[1]; 40° C., 30 days, open flask",No change
same,Color and state,"[1]; 60° C., 5 days, open flask",White solid
same,Purity %,"[1]; 60° C., 5 days, open flask",99.8%
same,Salt form,"[1]; 60° C., 5 days, open flask",No change
same,Color and state,"[1]; 60° C., 10 days, open flask",White solid
same,Purity %,"[1]; 60° C., 10 days, open flask",99.7%
same,Salt form,"[1]; 60° C., 10 days, open flask",No change
same,Color and state,"[1]; 60° C., 30 days, open flask",White solid
same,Purity %,"[1]; 60° C., 30 days, open flask",99.5%
same,Salt form,"[1]; 60° C., 30 days, open flask",No change
same,Color and state,"[1]; 75% RH, 5 days, open flask",White solid
same,Purity %,"[1]; 75% RH, 5 days, open flask",100.0%
same,Salt form,"[1]; 75% RH, 5 days, open flask",No change
same,Color and state,"[1]; 75% RH, 10 days, open flask",White solid
same,Purity %,"[1]; 75% RH, 10 days, open flask",99.9%
same,Salt form,"[1]; 75% RH, 10 days, open flask",No change
same,Color and state,"[1]; 75% RH, 30 days, open flask",White solid
same,Purity %,"[1]; 75% RH, 30 days, open flask",100.0%
same,Salt form,"[1]; 75% RH, 30 days, open flask",No change
same,Color and state,"[1]; 92.5% RH, 5 days, open flask",White solid
same,Purity %,"[1]; 92.5% RH, 5 days, open flask",99.9%
same,Salt form,"[1]; 92.5% RH, 5 days, open flask",No change
same,Color and state,"[1]; 92.5% RH, 10 days, open flask",White solid
same,Purity %,"[1]; 92.5% RH, 10 days, open flask",99.9%
same,Salt form,"[1]; 92.5% RH, 10 days, open flask",No change
same,Color and state,"[1]; 92.5% RH, 30 days, open flask",White solid
same,Purity %,"[1]; 92.5% RH, 30 days, open flask",99.9%
same,Salt form,"[1]; 92.5% RH, 30 days, open flask",No change
same,Color and state,"[1]; Initial, 0 days",White solid
same,Purity %,"[1]; Initial, 0 days",100.0%
same,Salt form,"[1]; Initial, 0 days",Crystal form I
same,Color and state,[1]; [4],White solid
same,Purity %,[1]; [4],100.0%
same,Salt form,[1]; [4],No change
same,Color and state,[1]; [5],White solid
same,Purity %,[1]; [5],99.9%
same,Salt form,[1]; [5],No change
same,Color and state,[1]; [6],White solid
same,Purity %,[1]; [6],99.5%
same,Salt form,[1]; [6],No change
same,chemical stability,[1]; [7],good
same,physical stability,[1]; [7],good
same,Purity %,[2]; [8],99.9%
same,Salt form,[2]; [8],No change
same,Purity %,[2]; [9],100.0%
same,Salt form,[2]; [9],No change
same,Purity %,[2]; [10],100.0%
same,Salt form,[2]; [10],No change
same,Purity %,[2]; [11],99.9%
same,Salt form,[2]; [11],No change
same,chemical stability,[2]; [12],good
same,physical stability,[2]; [12],good
same,Purity %,[2]; [13],99.9%
same,Salt form,[2]; [13],No change
same,Purity %,[2]; [14],99.9%
same,Salt form,[2]; [14],No change
same,Purity %,[2]; [15],99.9%
same,Salt form,[2]; [15],No change
same,Purity %,[2]; [16],99.8%
same,Salt form,[2]; [16],No change
same,Purity %,[2]; Initial,100.0%
same,Salt form,[2]; Initial,Crystal form I
same,hygroscopic weight gain under normal storage conditions,[3],about 0.51%
same,hygroscopic weight gain under accelerated experimental conditions,[3],about 0.60%
same,hygroscopic weight gain under extreme conditions,[3],about 0.82%
same,crystal form re-identification after DVS testing,[3],did not change
"CCO[C@H]1C[C@H]2CC[C@@](c3ccc(C(=O)O)cc3)(C1)N2Cc1c(OC)cc(C)c2[nH]ccc12.O=P(O)(O)O [crystal form II of the phosphate, 4-((1S,3S,5R)-3-ethoxy-8-((5-methoxy-7-methyl-1H-indol-4-yl)methyl)-8-azabicyclo[3.2.1]octan-1-yl)benzoic acid-phosphate]",Color and state,"[1]; 40° C., 5 days, open flask",White solid
same,Salt form,"[1]; 40° C., 5 days, open flask",No change
same,Color and state,"[1]; 40° C., 12 days, open flask",White solid
same,Salt form,"[1]; 40° C., 12 days, open flask",No change
same,Color and state,"[1]; 40° C., 30 days, open flask",White solid
same,Salt form,"[1]; 40° C., 30 days, open flask",No change
same,Color and state,"[1]; 60° C., 5 days, open flask",White solid
same,Salt form,"[1]; 60° C., 5 days, open flask",No change
same,Color and state,"[1]; 60° C., 12 days, open flask",White solid
same,Salt form,"[1]; 60° C., 12 days, open flask",No change
same,Color and state,"[1]; 60° C., 30 days, open flask",White solid
same,Salt form,"[1]; 60° C., 30 days, open flask",No change
same,Color and state,"[1]; 75% RH, 5 days, open flask",White solid
same,Salt form,"[1]; 75% RH, 5 days, open flask",No change
same,Color and state,"[1]; 75% RH, 12 days, open flask",White solid
same,Salt form,"[1]; 75% RH, 12 days, open flask",No change
same,Color and state,"[1]; 75% RH, 30 days, open flask",White solid
same,Salt form,"[1]; 75% RH, 30 days, open flask",No change
same,Color and state,"[1]; 92.5% RH, 5 days, open flask",White solid
same,Salt form,"[1]; 92.5% RH, 5 days, open flask",No change
same,Color and state,"[1]; 92.5% RH, 12 days, open flask",White solid
same,Salt form,"[1]; 92.5% RH, 12 days, open flask",Changed
same,Color and state,"[1]; 92.5% RH, 30 days, open flask",White solid
same,Salt form,"[1]; 92.5% RH, 30 days, open flask",Changed
same,Color and state,"[1]; Initial, 0 days",White solid
same,Salt form,"[1]; Initial, 0 days",Crystal form II
same,Color and state,[1]; [4],White solid
same,Salt form,[1]; [4],No change
same,Color and state,[1]; [17],White solid
same,Salt form,[1]; [17],No change
same,Color and state,[1]; [6],White solid
same,Salt form,[1]; [6],No change
same,chemical stability under high humidity conditions,"[1]; high humidity conditions only, 30 days",good
same,"physical stability under high temperature, light exposure, and high humidity (75% RH) conditions","[1]; high temperature, light exposure, high humidity 75% RH only",good
same,Purity %,[2]; [8],99.6%
same,Purity %,[2]; [9],99.4%
same,physical stability,"[2]; 25° C./60% RH and 40° C./75% RH, 2 months",relatively good
same,Purity %,[2]; [13],98.7%
same,Purity %,[2]; [14],97.7%
same,Purity %,[2]; Initial,99.9%
same,long-term chemical stability,"[2]; long-term condition, 2 months",good
"CCO[C@H]1C[C@H]2CC[C@@](c3ccc(C(=O)O)cc3)(C1)N2Cc1c(OC)cc(C)c2[nH]ccc12.O=P(O)(O)O [crystal form III of the phosphate, 4-((1S,3S,5R)-3-ethoxy-8-((5-methoxy-7-methyl-1H-indol-4-yl)methyl)-8-azabicyclo[3.2.1]octan-1-yl)benzoic acid-phosphate]",hygroscopic weight gain under normal storage conditions,[3],about 4.7700%
same,hygroscopic weight gain under accelerated experimental conditions,[3],about 5.440%
same,hygroscopic weight gain under extreme conditions,[3],about 7.20%
same,crystal form re-identification after DVS testing,[3],did not change
"CCO[C@H]1C[C@H]2CC[C@@](c3ccc(C(=O)O)cc3)(C1)N2Cc1c(OC)cc(C)c2[nH]ccc12.Cl [crystal form V of the hydrochloride, 4-((1S,3S,5R)-3-ethoxy-8-((5-methoxy-7-methyl-1H-indol-4-yl)methyl)-8-azabicyclo[3.2.1]octan-1-yl)benzoic acid-hydrochloride]",hygroscopic weight gain under normal storage conditions,[3],about 6.36%
same,hygroscopic weight gain under accelerated experimental conditions,[3],about 7.28%
same,hygroscopic weight gain under extreme conditions,[3],about 8.32%
same,crystal form re-identification after DVS testing,[3],did not change
"CCO[C@H]1C[C@H]2CC[C@@](c3ccc(C(=O)O)cc3)(C1)N2Cc1c(OC)cc(C)c2[nH]ccc12.Cl [crystal form VI of the hydrochloride, 4-((1S,3S,5R)-3-ethoxy-8-((5-methoxy-7-methyl-1H-indol-4-yl)methyl)-8-azabicyclo[3.2.1]octan-1-yl)benzoic acid-hydrochloride]",hygroscopic weight gain under normal storage conditions,[3],about 3.69%
same,hygroscopic weight gain under accelerated experimental conditions,[3],about 4.12%
same,hygroscopic weight gain under extreme conditions,[3],about 5.73%
same,crystal form re-identification after DVS testing,[3],did not change
